Entries after “also recorded” stand apart in the source; their conditions may differ. Where two headings read alike, the source gives them in different places.
Legend:
PC-3MLN4 cells = experiment: Normalized mitotic index (histone H3 phospho-Serine-28), PC-3MLN4; format: cell-based; details: Homo sapiens, read-out: Normalized mitotic index PC-3MLN4, at 1 μM; normalized against vehicle-treated cells
Source text: (§1) The mitotic index for each agent was normalized against those obtained from vehicle-treated cells, and compared with the activity of paclitaxel, a known inducer of mitotic arrest.

[1] = tested on: multidrug resistant MES-SA/Dx5 human uterine sarcoma cells; experiment: Cell viability, MES-SA/Dx5; format: cell-based; details: read-out: ED50 MES-SA/Dx5
Source text: Benzimidazoles retain their anti-tumor activity in these paclitaxel-resistant cells, with higher potency when compared to the parental cells (see Table 4). Cells resistant to microtubule-stabilizing drugs such as the taxanes are more susceptible to microtubule-disrupting agents. To confirm this, human uterine sarcoma MES-SA/Dx5 cells, which are cross-resistant to various chemotherapeutic agents, including the microtubule-disrupting agents vincristine and colchicine, were used.

DU145 cells = experiment: Normalized mitotic index, DU145; format: cell-based, human; details: 1 μM
[2] = tested on: PC3 human prostate cancer cells; experiment: Cyquant cell viability assay, PC3; format: cell-based; details: read-out: ED50 PC3
Procedure: The cytotoxic effects of paclitaxel, fenbendazole, and albendazole were compared in paclitaxel-resistant PC3-TR and DU145-TR prostate cancer cells with their paclitaxel-sensitive counterparts, PC3 and DU145 cells. Cells were treated for 72 hours with vehicle, paclitaxel, fenbendazole or albendazole in various doses. Cell viability was measured using Cyquant assay, and percent control was calculated by dividing the fluorescent reading from drug-treated cells with those from vehicle-treated cells, indicating percentage of cell survival.

[3] = tested on: AT6.1 Dunning rat prostate carcinoma; experiment: Survival in intravenous AT6.1 Dunning rat prostate carcinoma lung metastasis model; format: in vivo, nu/nu mice; details: for average survival time: FIG. 5 (carrier only 20.4 days); for survival: 100 mg/kg, FIG. 6 (control 24.25 days)
Procedure: Many anti-tumor drugs are tested only for their ability to prevent primary tumor growth or to prevent the dissemination of metastatic cells. To accomplish this, the drug is usually administered shortly after the primary tumor is established. […] The benzimidazoles described herein were evaluated in an experimental metastases model in the lungs of nude mice following tail-vein injection of Dunning rat AT6.1 prostate carcinoma. […] In order to achieve greater bioavailability, we first solubilized benzimidazoles in DNTC formulation and then diluted with saline prior to injection.
Inbred male nu/nu mice age 6-8 weeks were obtained from Massachusetts General Hospital (Boston, Mass.). The mice were virus antibody free, age and weight matched for experimental use and fed with a balanced rodent diet ad libitum. AT6.1 Dunning rat prostate cells were maintained as described above. 1×10^4 log-phase cells were injected via tail vein in 0.1 mL Hanks solution. Vehicle or drug treatment was started on day 5 post inoculation and given three times a week (Monday, Wednesday and Friday) via intraperitoneal injection in 0.5 mL volume. Benzimidazole drugs were prepared in the combination carrier [DMSO (12.5%), NMP (37.5%), TWEEN®-80 (25%) and CrEL (25%)] and diluted in saline. Vehicle control was prepared by diluting the combination carrier with saline.
During the course of treatment, the mice were monitored for toxicity by measuring body weight. […] Animals were euthanized with CO2 and tissues were collected for further analysis. The animals and experiments used in these studies were approved by the institutional animal care committee according to Children's Hospital Boston ARCH guidelines.
To distinguish differences in survival between these groups, the percent increase in life span (ILS %), defined as the percent increase in the mean time to death of drug-treated animals over the corresponding time to death for vehicle-treated mice, was calculated.

PC3-TR cells = experiment: Normalized mitotic index, PC3-TR; format: cell-based, human; details: 1 μM
PC3M cells = experiment: Annexin V/7-AAD apoptosis by flow cytometry, PC3M; format: cell-based, human; details: 1 μM, 72 hours, combination carrier
Procedure: All benzimidazole drugs were solubilized in the combination carrier. After 72 hours, the cells were analyzed by annexin V/7-AAD staining.
Annexin V/7-amino-actinomycin D labeling was done according to the manufacturer's instructions (BD Pharmingen, 559763) and samples were analyzed by flow cytometry. Briefly, the cells were treated for 72 hours with either vehicle or 1 μM benzimidazole drugs, solubilized in the combination carrier. Cells were trypsinized and washed with PBS before resuspending in assay binding buffer. Annexin V and 7-amino-actinomycin labeling was performed at room temperature for 15 minutes before analysis by flow cytometry (BD FACScan). Cells positively stained for annexin V in the lower right quadrant and upper right quadrant indicate early and late apoptosis, respectively.

[4] = tested on: PC3MLN4 human prostate cancer cells; experiment: Cyquant cell viability assay, PC3MLN4; details: for EC50: Homo sapiens, 72 h, read-out: ED50 PC3MLN4 DMSO
Procedure: PC3M and PC3MLN4 cells were treated with vehicle, fenbendazole in DMSO, and fenbendazole in DMSO/NMP/TWEEN®-80/CrEL in varying doses for 72 hours. Cell viability assays using Cyquant reagent (Invitrogen, C7026) were performed as described in the literature. […] cells were seeded in 96 well plates overnight, before treated with either vehicle or benzimidazole solubilized in DMSO alone or in DMSO (12.5%)/NMP ([…])/TWEEN®-80 (25%)/Cr-EL (25%) for 72 hours. Cells were harvested by removing the media, washing once with phosphate buffered saline (PBS) and freezing at −80° C. for overnight. After thawing to room temperature, Cyquant reagent were prepared and added to the wells and the fluorescence intensity were measured with a spectrometer at 485 nm. Percent control was calculated by dividing the reading from drug-treated cells with the reading from vehicle-treated cells.
ED50 values were calculated from dose-effect analysis performed with Compusyn using data from the Cyquant cell viability assays.
ED50 values were calculated from dose-effect analysis performed with Compusyn using data from the Cyquant cell viability assays. All benzimidazoles drugs were solubilized in the combination carrier.

PC-3M cells = experiment: Normalized mitotic index (histone H3 phospho-Serine-28), PC-3M; format: cell-based; details: Homo sapiens
Source text: as §1

AT6.1 lung metastases = experiment: Ki-67 and caspase-3 staining of lung tumor sections; format: in vivo, mice; details: 50 mg/kg, combination carrier; FIG. 10
Procedure: To investigate whether benzimidazoles treatment affects cell proliferation and apoptosis in vivo, immunohistochemical analysis of the cell proliferation marker, Ki-67 and of the apoptotic marker, activated caspase-3 was performed on mouse lung sections from each group.
Tumor cells in the lungs of rats treated with saline and 50 mg/kg fenbendazole (formulation in the combination carrier) were analyzed by Ki-67 and caspase-3 antibody staining. Tissues were collected and fixed in formalin before processed for paraffin embedding. Tissue sections were then processed for Ki-67 and caspase-3 antibody staining, using the protocol established at Dana Farber Cancer Institute/Harvard Cancer Center Research Pathology Core. At least five random 200× magnification images were photographed from each animal. Distinct and strong nuclear Ki67 staining of tumor cells were counted using Image J software (NIH, Bethesda, […].).

[5] = 100 mg/kg i.p. three times a week, over vehicle-treated mice

For `CCCSc1ccc2nc(NC(=O)OC)[nH]c2c1` [Albendazole, albendazole], the fold induction at 1 µM (PC-3MLN4 cells) was 1.8 to 2, the EC50 [1] was 840 nM and the “Normalized mitotic index (6 hours) DU145” value (DU145 cells) was 1.93. The EC50 ([2]; 72 h) was 4860 nM, the average survival time ([3]; 50 mg/kg i.p. three times a week from day 5) was 24.4 days and the average survival time ([3]; 100 mg/kg i.p. three times a week from day 5) was 32 days. For the same compound, the “percent increase in life span (ILS %)” value [3, 5] was 59.7%, the survival [3] was 38.75 days and the “percent increase in life span (ILS %)” value ([3]; 250 mg/kg three times a week) was 64%. The “Normalized mitotic index (6 hours) PC3-TR” value (PC3-TR cells) was 1.56, the “apoptotic cells in PC3M” value (PC3M cells) was 22% and the EC50 [4] was 4680 nM. For the same compound, the “cytotoxicity in the combination carrier compared to DMSO alone” value ([4]; PC3MLN4 cells, 72 hours) was “greater cytotoxicity”, the “cytotoxicity in highly metastatic cells relative to PC-3M” value ([4]; PC-3MLN4 (b184 also AT6.1) relative to PC-3M) was “greater cytotoxicity” and the fold induction at 1 µM (PC-3M cells; read-out: Normalized mitotic index PC-3M, at 1 μM, normalized against vehicle-treated cells) was over 1.

For `COC(=O)Nc1nc2ccc(Sc3ccccc3)cc2[nH]1` [Fenbendazole, fenbendazole], the “tumor cell proliferation (Ki67 staining) compared to control” value (AT6.1 lung metastases) was “less proliferation of tumor cells; also recorded: marked reduction in tumor cell proliferation”, the EC50 [1] was 1130 nM and the “Normalized mitotic index (6 hours) DU145” value (DU145 cells) was 1.47. The EC50 ([2]; 72 hours) was 1570 nM, the “percent increase in life span (ILS %)” value [3, 5] was 45.3% and the survival [3] was 35.25 days. The “Normalized mitotic index (6 hours) PC3-TR” value (PC3-TR cells) was 1.48, the “apoptotic cells in PC3M” value (PC3M cells) was 22.8% and the “cytotoxicity in the combination carrier compared to DMSO alone” value [4] was “greater cytotoxicity”. The EC50 [4] was 1930 nM, the “reduction in ED50, DNTC compared to DMSO, PC-3MLN4” value ([4]; solubilized in DNTC vs DMSO) was about 2 fold and the fold induction at 1 µM (PC-3M cells; at 1 μM, normalized against vehicle-treated cells, read-out: Normalized mitotic index PC-3M) was over 1.

Reference: patent publication US20120064008A1, “COMPOSITIONS FOR THE TREATMENT OF METASTATIC CANCER AND METHODS OF USE THEREOF” (priority 2009, published 2012)
